Experimental data as given in PMC11840605, “Crystallographic and Thermodynamic Evidence of Negative Coupling in the Flavin-Dependent Tryptophan Halogenases AbeH and BorH” (ACS Omega, 2025).
Entries after “also recorded” stand apart in the source; their conditions may differ.

Columns and labels:
[1] = target: AbeH/Trp (uncultured bacterium, UniProt F6LWA5); test: Isothermal titration calorimetry, FAD into AbeH preincubated with Trp; type: binding, uncultured soil actinomycetes; design: n (ITC, Table S3) / DH (ΔH, ITC, Table S3) / -TDS (-TΔS, ITC, Table S3) / DG (ΔG, ITC, Table S3): unit of the concentration uncertain
AbeH/Trp, sequence (F6LWA5 entry or part of it): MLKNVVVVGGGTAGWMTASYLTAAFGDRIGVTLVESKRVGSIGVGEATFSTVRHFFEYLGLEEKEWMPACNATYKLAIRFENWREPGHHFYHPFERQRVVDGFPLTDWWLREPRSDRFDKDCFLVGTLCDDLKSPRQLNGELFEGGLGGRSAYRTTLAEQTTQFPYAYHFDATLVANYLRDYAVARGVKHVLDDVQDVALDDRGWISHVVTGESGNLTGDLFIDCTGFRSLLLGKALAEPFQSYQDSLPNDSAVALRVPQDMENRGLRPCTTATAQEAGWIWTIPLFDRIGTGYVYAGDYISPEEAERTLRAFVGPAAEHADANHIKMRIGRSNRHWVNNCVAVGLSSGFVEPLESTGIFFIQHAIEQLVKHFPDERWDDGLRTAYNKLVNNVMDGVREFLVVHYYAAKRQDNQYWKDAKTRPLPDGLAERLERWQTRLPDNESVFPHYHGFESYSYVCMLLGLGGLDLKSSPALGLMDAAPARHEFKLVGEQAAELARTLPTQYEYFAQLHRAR
Procedure: (§1) ITC experiments were performed using a VP-ITC isothermal titration calorimeter (MicroCal) in 20 mM HEPES pH 7.5, 350 mM NaCl, 1 mM ethylenediamine tetraacetic acid (EDTA) and 15% (v/v) glycerol. Solutions of AbeH, BorH, FAD (Chem-Implex), and Trp (Acros Organics) were prepared in the same buffer and degassed under vacuum at 30 °C for 20 min before loading in the syringe or cell. To analyze formation of binary complexes, AbeH or BorH was placed inside the cell, and ligand (FAD or Trp) was injected. For ternary complex titration, one ligand was preincubated with the macromolecule for 30 min at 30 °C to form binary complexes of AbeH/FAD, AbeH/Trp, BorH/FAD, and BorH/Trp before titrating with the second ligand. To test FADH2 binding to AbeH and BorH, FAD was reduced to FADH2 using sodium dithionite and stored under N2. Formation of FADH2 by sodium dithionite was verified using absorbance and fluorescence spectrophotometry.
ITC experiments were performed with reference power set to 10 μcal/s and Milli-Q water in the reference cell. All experiments were done with a pretitration delay of 20 min, a 5 min interval between injections, and a filter period of 2 s in high feedback gain mode. All experiments were performed at 310 rpm to mix the components in cell and titrant. All other VP-ITC instrumental parameters were set to default settings. Heats of dilution for all titrants were measured by titrating ligand into buffer for binary complex titrations, and by titrating ligand into a solution containing the other ligand but no protein for ternary complex titration.
190 μM FAD (2 μL/1 and 15 μL/29 injections) into 28 μM AbeH preincubated with 16 mM Trp (Figure 4C)
190 μM FAD (2 μL/1 and 15 μL/29 injections) into 28 μM AbeH preincubated with 28 mM Trp (Figure S8)
Titrations were analyzed by manually integrating each injection, subtracting the heat of dilution, and carrying out nonlinear least-squares fit of the calorimetric binding data to a one-site model using Origin 7.0 (Origin Lab). Trp binding experiments were subtracted by point-by-point heat of dilution, and FAD and FADH2 binding experiments were subtracted using the mean heat of the last three injections. For the Trp binding data, n was fixed to 1 based on expected stoichiometry of 1:1 based on FDH crystal structures and as proposed for lower c-value titrations in the literature.[23],[25],[82] The other parameters were not constrained during fitting.

[2] = target: BorH (uncultured bacterium, UniProt M9QSI0); test: Quenching of BorH intrinsic Trp fluorescence upon FAD titration; design: species or system uncultured soil actinomycetes; settings: 100 nM BorH; read-out: KD, FAD binding to BorH, BorH intrinsic Trp fluorescence
BorH, sequence (M9QSI0 1-529): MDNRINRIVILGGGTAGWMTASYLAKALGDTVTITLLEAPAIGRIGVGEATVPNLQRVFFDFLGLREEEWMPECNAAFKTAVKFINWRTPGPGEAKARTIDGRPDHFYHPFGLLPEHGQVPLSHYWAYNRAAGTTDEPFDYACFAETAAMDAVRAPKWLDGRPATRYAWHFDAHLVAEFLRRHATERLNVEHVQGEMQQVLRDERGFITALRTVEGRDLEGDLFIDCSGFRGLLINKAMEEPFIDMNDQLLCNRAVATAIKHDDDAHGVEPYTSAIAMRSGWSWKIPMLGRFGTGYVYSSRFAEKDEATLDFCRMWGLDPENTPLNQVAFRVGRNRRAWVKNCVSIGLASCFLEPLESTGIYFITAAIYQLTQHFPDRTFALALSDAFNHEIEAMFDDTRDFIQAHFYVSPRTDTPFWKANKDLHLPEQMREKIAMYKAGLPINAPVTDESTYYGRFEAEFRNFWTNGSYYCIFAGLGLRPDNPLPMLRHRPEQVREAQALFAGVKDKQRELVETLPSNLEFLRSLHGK
Procedure: Intrinsic tryptophan fluorescence spectroscopy was used to measure FAD binding to AbeH and BorH in 20 mM HEPES pH 7.7- and 50 mM sodium citrate. FAD was prepared in the same buffer and its concentration was determined spectrophotometrically as described earlier. Fluorescence experiments were performed as described earlier. FAD binding to apo-AbeH or apo-BorH was performed in duplicate with 100 nM fixed AbeH or BorH with variable FAD concentrations up to 30 and 70 μM, respectively. AbeH/FAD binding was monitored using excitation at 295 nm and emission at 328 nm. BorH/FAD binding was monitored using excitation at 290 nm and emission at 326 nm. Inner filter effect corrected fluorescence intensities were plotted against quenched intrinsic tryptophan fluorescence of AbeH and BorH. Data were fitted by nonlinear regression to eq 1 using GraphPad Prism 8.0.
Figure S9: FAD binding determined by quenching of BorH and AbeH intrinsic Trp fluorescence.
A. Variable concentrations of FAD (0-70 µM) were incubated with 100 nM BorH and Trp fluorescence was measured with excitation at 290 nm and emission at 326 nm. […]
B. Variable concentrations of FAD (0-30 µM) were incubated with 100 nM AbeH and Trp fluorescence was measured […] with excitation at 295 nm and emission at 328 nm. […]

[3] = target: AbeF; settings: read-out: KD, flavin binding to AbeF; cited from earlier work
[4] = test system: AbeH/FAD; test: Isothermal titration calorimetry, Trp into AbeH preincubated with FAD; type: binding, uncultured soil actinomycetes
Procedure: as §1, with “To test FADH2 binding to AbeH and BorH, FAD was reduced to FADH2 using sodium dithionite and stored under N2.” left out
ITC experiments were performed with reference power set to 10 μcal/s and Milli-Q water in the reference cell. […] Heats of dilution for all titrants were measured by titrating ligand into buffer for binary complex titrations, and by titrating ligand into a solution containing the other ligand but no protein for ternary complex titration. […]
Titrations were analyzed by manually integrating each injection, subtracting the heat of dilution, and carrying out nonlinear least-squares fit of the calorimetric binding data to a one-site model using Origin 7.0 (Origin Lab). […]

[5] = target: AbeH (uncultured bacterium, UniProt F6LWA5); test: Time-course of in vitro Trp chlorination and bromination by AbeH; type: biochemical, uncultured soil actinomycetes
AbeH, sequence (F6LWA5 entry or part of it): as the sequence (F6LWA5 entry or part of it) above
Procedure: Time-course experiments were done using 1.7 μM AbeH, 3.3 μM holo-AbeF, 500 μM Trp, 2.5 mM NADH in 10 mM Na/KPO4 pH 8.2 with either 50 mM NaCl or 100 mM NaBr. Reactions were incubated for 5 min at 37 °C and NADH was added to start the reactions. Aliquots of 100 μL were quenched and analyzed by RP-HPLC at various time points. Unreacted substrate and product concentrations were calculated using peak areas and standard curves of Trp, 5-Cl-Trp, and 5-Br-Trp.
Figure S4: Time-course of in vitro Trp chlorination and bromination by AbeH.
Reaction conditions: 1.7 µM AbeH, 3.3 µM holo-AbeF, 0.5 mM Trp, 2.5 mM NADH, 10 mM Na/KPO4 pH 8.2, and either 50 mM NaCl (A) or 100 mM NaBr (B). Concentration of product formed was calculated from RP-HPLC chromatogram integrated A280 peak areas compared to standard curves of integrated peak areas of known concentrations of 5-Cl-Trp and 5-Br-Trp standards. Experiments were carried out in duplicate. (A) Time course of Trp chlorination by AbeH has chlorination specific activity of 87 µmol min-1 mg-1. (B) Time course of Trp bromination by AbeH has bromination specific activity of 34 µmol min-1 mg-1.
(1 picture or pasted object on this page, not shown here)

[6] = cell AbeH/Trp (16 (unit uncertain))
[7] = cell AbeH/Trp (28 (unit uncertain))

## Cc1cc2nc3c(=O)[nH]c(=O)nc-3n(C[C@H](O)[C@H](O)[C@H](O)COP(=O)(O)OP(=O)(O)OC[C@H]3O[C@@H](n4cnc5c(N)ncnc54)[C@H](O)[C@@H]3O)c2cc1C [FAD]
[1]; Apparent KD, FAD binding to AbeH/Trp, ITC, AbeH preincubated with Trp, depends on the Trp:AbeH molar ratio
  Kd: 6.3 ± 2.4 µM
[1]; ITC
  Heat of binding, titration of FAD into AbeH/Trp, in words: endothermic; also recorded: heat being absorbed rather than released
[1]; KD, FAD into AbeH/Trp, ITC, experiment of Figure 4C, 28 μM AbeH preincubated with 16 mM Trp
  Kd: 2.1 µM
[1]; [6]
  -TDS (-TΔS, ITC, Table S3): -15.1 kcal/mol
  DG (ΔG, ITC, Table S3): -7.8 kcal/mol
  DH (ΔH, ITC, Table S3): 7.3 ± 0.4 kcal/mol
  n (ITC, Table S3): 0.58 ± 0.02
[1]; [7]
  -TDS (-TΔS, ITC, Table S3): -13.1 kcal/mol
  DG (ΔG, ITC, Table S3): -7.2 kcal/mol
  DH (ΔH, ITC, Table S3): 5.9 ± 1.6 kcal/mol
  n (ITC, Table S3): 0.6 ± 0.1
[2]
  Kd: 9.1 ± 2.4 µM
[3]
  Kd: 0.8 µM

## N[C@@H](Cc1c[nH]c2ccccc12)C(=O)O [Tryptophan, L-tryptophan]
[4]; 27 mM Trp into 48 μM AbeH preincubated with 3.3 mM FAD, listed as Trp
  Binding of Trp to preincubated AbeH/FAD by ITC, in words: No binding was observed; also recorded: no evidence of Trp binding
[4]; AbeH preincubated with FAD
  KD, Trp binding to AbeH/FAD, ITC: no binding
[5]
  Specific activity of AbeH for Trp chlorination relative to Trp bromination: approximately 2.5 ×
[5]; 1.7 μM AbeH, 500 μM Trp, 50 mM NaCl, 37 °C
  Specific activity of AbeH for chlorination of Trp: 87 μM min^–1 mg^–1
[5]; 1.7 μM AbeH, 500 μM Trp, 100 mM NaBr, 37 °C
  Specific activity of AbeH for bromination of Trp: 34 μM min^–1 mg^–1
[5]; Figure S4 A, 0.5 mM Trp, 50 mM NaCl
  AbeH chlorination specific activity: 87 µmol/min/mg
[5]; Figure S4 B, 0.5 mM Trp, 100 mM NaBr
  AbeH bromination specific activity: 34 µmol/min/mg
